Reference: article PMC4663524 (Toxins, 2015)
Where “and” joins values, the source holds several entries; their conditions need not be identical. Equal entries are not always repeated.

Legend:
[1] = Plasma toxicokinetics after a single intravenous bolus (DONiv, DONSiv); format: in vivo, pigs; settings: for Vd(area), apparent volume of distribution: DONS 1 or DONS 2, DONSiv 50 µg/kg BW; for peak concentration in plasma (mean of A + B): after DONSiv 50 µg/kg BW; for stability in plasma: after DONSiv injection
Description: (§1) The experiment was designed as a kinetic study. […] Due to the instability of DONS 2 and 3 upon evaporation to dryness, the standards of the three DONS were dissolved in water acidified with 2% formic acid.
(§2) A total of 16 castrated male pigs, crossbred German Landrace × Pietrain, were used for these kinetic experiments. After an adaption phase to the balance cages, eight animals underwent surgery per trial. Animals were equipped with two permanent intravenous catheters in the external vena jugularis for serial blood sampling. After surgery the animals were allowed to recover for one day. On test day, zero blood samples had to be collected from pigs before exposure. Zero blood samples served as reference values to which the data after oral or intravenous bolus related. Serial blood samples (10 mL) were drawn prior to feeding and after 15, 30, 60 and 90 min and then after two, three, four, six, eight, 10, 12, and 24 h for pigs receiving compounds by oral administration. For pigs dosed intravenously, shorter time intervals were chosen at the beginning: five, 10, 15, 20, 30, 45 min and then following the same intervals as for oral exposure. For a clear classification in result Table 1, Table 2, Table 3, Table 4, Table 5 and Table 6, we differentiated between IV- (intravenous bolus) and O- (oral bolus) animals. Due to repeated use of individuals it was numbered continuously.
(§3) Two different injection solutions were prepared for IV administration. […] After weighing, an individual amount was drawn up into syringes with a dose of 50 µg/kg BW. The concentrations of DONS 1, 2, and 3 in DONS standard solution were 3240, 1720, and 7300 µg/mL, respectively. […] Thereafter, the standard was mixed with physiological saline to prepare a 250 µg/mL DONS stock solution. The further handling was similar to DON.
(§4) For quantitative determination of DONS 1, 2, and 3 in plasma, an HPLC-MS/MS analysis was conducted on an Agilent 1200 (Agilent Technologies, Böblingen, Germany) series HPLC system coupled to a 4000 QTrap mass spectrometer (AB Sciex, Foster City, CA, USA). […] The retention times of DONS 1, 2, and 3 were 2.31, 4.71, and 5.88 min, respectively. Tandem mass spectrometric detection was carried out in negative ion mode after electrospray ionization at 600 °C (ion spray voltage: −4500 V). The method was validated in-house for all analytes based on the guidelines of the FDA and European community. Calibration graphs (0.3–480 ng/mL) were prepared and good linearity was achieved (r ≥ 0.99).
The LOD amounted to 0.22 ng/mL and the LOQ was 0.72 ng/mL.
A + B is the initial concentration at t = 0, i.e., C0, α, and β are the rate constant of distribution or elimination phase, respectively, and t the time (h). The non-linear curve fitting module of the Statistica for the Windows^TM operating system (StatSoft Inc., Tulsa, OK, USA) was used to fit the data to Equations (1) and (2).
Further kinetic parameters were derived from the fitted functions as also described by Prelusky et al.. The half-life was calculated as t1/2α=ln (2)/ka or α for absorption or distribution phase and t1/2β=ln(2)/kel or β for the elimination phase, respectively. […] The apparent volume of distribution by area (Vd(area)) following intravenous application was calculated by Vd(area) = D/AUC⋅t1/2β/ln(2) as an indicator of Vd corresponding to the elimination phase and thus covering large parts of the kinetics.
In addition, in order to evaluate the decomposition of the IV administered DONS mixture the DON-AUC was divided by the sum of individually estimated AUCs for DONS 1 and DONS 2 and declared as F. In each case, the AUCs were corrected for the administered dose.

[2] = Clinical symptoms after intravenous or oral bolus; format: in vivo, pigs; settings: for clinical symptoms: pigs, after single bolus
Description: as §1, §2

[3] = DONS/DON pattern in standard solution, bolus solution and pig plasma; format: physicochemical; settings: for Proportion in bolus solution: DONS standard mixed with physiological saline for IV bolus (pH 2.66); for Proportion in standard solution: DONS standard solution (pH 1.56); for Proportion in pig plasma: after IV 50 µg DONS mixture/kg BW
Description: as §3
Due to known dependency of DONS stability on pH value, we compared the pH of standard and bolus solutions. The determination was carried out with a pH meter (WTW GmbH, Weilheim, Germany). Both an addition of physiological saline and distilled water caused changes in pH value, and so shifts in DONS ratio took place.
as §4

[4] = cited from earlier work
[5] = cited from earlier work; remark: listed apart in the source
[6] = DONS mixture added to uncontaminated diet
[7] = cited from earlier work; for pH range of stability: DONS 2: for 24 h
[8] = DON in plasma after DONSiv 50 µg/kg BW, individual pigs IV6-11
[9] = DON in plasma after DONSiv 50 µg/kg BW, mean, n=6
[10] = DON in plasma, IV 50 µg DON/kg BW, individual pigs IV 1-5, listed as DONiv
[11] = DON in plasma, IV 50 µg DON/kg BW, mean, n=5
[12] = DONS 1 or DONS 2 in plasma (DON equivalents), DONSiv 50 µg/kg BW, individual pigs IV6-11
[13] = DONS 1 or DONS 2 in plasma (DON equivalents), DONSiv 50 µg/kg BW, mean, n=6
[14] = DONS 1 or DONS 2 in plasma (DON equivalents), IV 50 µg DONS mixture/kg BW (DONSiv), individual pigs IV6-11
[15] = DONS 1 or DONS 2 in plasma, DONSiv 50 µg/kg BW, individual pigs IV6-11
[16] = DONS 1 or DONS 2 in plasma, DONSiv 50 µg/kg BW, mean, n=6

CC1=C[C@H]2O[C@@H]3[C@H](O)C[C@](C)([C@@]2(CO)[C@H](O)C1=O)[C@]31CO1 [DON, deoxynivalenol]
mean maximum concentration of DON in plasma (A + B) ([1]; DON after DONSiv 50 µg/kg BW): 17.33 ng/mL | B [1, 8]: 7.13 ng/mL and 5.49 ng/mL and 5.08 ng/mL and 2.91 ng/mL and 6.48 ng/mL and 3.17 ng/mL | F, release rate of DON from DONS [1, 8]: 12.5% and 17.3% (2×) and 18.2% and 23.8% and 15.3% | α, rate constant of distribution phase [1, 8]: 5.02 h⁻¹ and 3.23 h⁻¹ and 4.83 h⁻¹ and 1.72 h⁻¹ and 3.99 h⁻¹ and 2.25 h⁻¹ | β, rate constant of elimination phase [1, 8]: 0.32 h⁻¹ and 0.22 h⁻¹ and 0.34 h⁻¹ and 0.17 h⁻¹ and 0.29 h⁻¹ and 0.27 h⁻¹ | A [1, 9]: 12.29 ng/mL | B [1, 9]: 5.04 ng/mL | F, release rate of DON from DONS [1, 9]: 17.37% | α, rate constant of distribution phase [1, 9]: 3.51 h⁻¹ | β, rate constant of elimination phase [1, 9]: 0.27 h⁻¹ | A ([1]; DON in plasma after IV 50 µg DONS mixture/kg BW (DONSiv), individual pigs IV6-11): 12.44 ng/mL and 8.40 ng/mL and 17.13 ng/mL and 12.74 ng/mL and 12.50 ng/mL and 10.51 ng/mL | A ([1]; DON in plasma, IV 50 µg DON/kg BW, two-compartment fit, individual pigs IV 1-5, listed as DONiv): 136.4 ng/mL and 624.9 ng/mL and 121.9 ng/mL and 56.2 ng/mL and 74.5 ng/mL | B [1, 10]: 96.5 ng/mL and 83.6 ng/mL and 73.5 ng/mL and 64.5 ng/mL and 84.1 ng/mL | α, rate constant of distribution phase [1, 10]: 7.35 h⁻¹ and 18.74 h⁻¹ and 13.71 h⁻¹ and 3.88 h⁻¹ and 6.29 h⁻¹ | β, rate constant of elimination phase [1, 10]: 0.36 h⁻¹ and 0.33 h⁻¹ and 0.35 h⁻¹ and 0.34 h⁻¹ and 0.38 h⁻¹ | A [1, 11]: 202.8 ng/mL | B [1, 11]: 80.5 ng/mL | α, rate constant of distribution phase [1, 11]: 9.99 h⁻¹ | β, rate constant of elimination phase [1, 11]: 0.35 h⁻¹ | number of retching and vomiting episodes ([2]; IV 50 µg DON/kg BW): between three and nine times | time of retching and vomiting after bolus ([2]; IV 50 µg DON/kg BW): 6 to 16 min | clinical symptoms [2]: sickness and emesis within minutes | clinical symptoms ([2]; listed as DONiv): retching and vomiting | Proportion in bolus solution [3]: 19.26% | Proportion in standard solution [3]: 0% | Proportion in pig plasma [3]: 10.45% | initial concentration A + B of DON at t = 0 ([4]; IV DON): 46.2–139.9 ng/mL plasma | maximum concentration cmax ([4]; oral, DON in wheat): 15.2 ng/mL | tmax ([4]; oral, DON in wheat): 1.65 h | total DON bioavailability ([4]; single oral dose, DON-contaminated wheat): 91.5% ± 27.4% | share of orally-administered DON absorbed in the stomach and the first third of the small intestine [5]: ~90%

CC12CC3(O)[C@@H]4O[C@H]([C@H]1S(=O)(=O)O)[C@](CO)([C@H](O)C2=O)[C@@]3(C)C[C@H]4O [DONS 1]
Vd(area), apparent volume of distribution ([1]; individual pigs IV6-11): 0.35 L/kg and 0.48 L/kg and 0.51 L/kg and 0.37 L/kg and 0.44 L/kg and 0.42 L/kg | Vd(area), apparent volume of distribution ([1]; mean, n=6): 0.4 L/kg | AUC, area under the curve [1, 12]: 179.7 ng·h/mL and 143.2 ng·h/mL and 167.6 ng·h/mL and 187.8 ng·h/mL and 163.4 ng·h/mL and 167.8 ng·h/mL | B [1, 12]: 74.30 ng/mL and 55.10 ng/mL and 61.46 ng/mL and 75.58 ng/mL and 67.17 ng/mL and 69.69 ng/mL | A [1, 13]: 104.2 ng/mL | AUC, area under the curve [1, 13]: 168.2 ng·h/mL | B [1, 13]: 67.2 ng/mL | A [1, 14]: 86.78 ng/mL and 61.27 ng/mL and 60.09 ng/mL and 257.42 ng/mL and 79.19 ng/mL and 80.20 ng/mL | t1/2β, half-life of elimination [1, 15]: 0.87 h and 0.96 h (2×) and 1.18 h and 0.99 h and 0.98 h | α, rate constant of distribution phase [1, 15]: 11.35 h⁻¹ and 13.56 h⁻¹ and 4.94 h⁻¹ and 20.41 h⁻¹ and 4.55 h⁻¹ and 10.96 h⁻¹ | β, rate constant of elimination phase [1, 15]: 0.80 1/h and 0.72 1/h (2×) and 0.59 1/h and 0.70 1/h and 0.71 1/h | α, rate constant of distribution phase [1, 16]: 11.0 h⁻¹ | β, rate constant of elimination phase [1, 16]: 0.7 h⁻¹ | peak concentration in plasma (mean of A + B) [1]: 171.4 ng/mL | stability in plasma [1]: stable in plasma | Proportion in bolus solution [3]: 69.75% | Proportion in standard solution [3]: 26.43% | Proportion in pig plasma [3]: 59.49% | detection in plasma after oral DONSpo [6]: rarely, traces of DONS 1 and 2 (<LOQ) | pH range of stability [7]: 2–10

C[C@H]1[C@H](S(=O)(=O)O)[C@H]2O[C@@H]3[C@H](O)C[C@](C)([C@]24COC1(O)[C@H]4O)[C@]31CO1 [DONS 2]
Vd(area), apparent volume of distribution ([1]; individual pigs IV6-11): 0.68 L/kg and 0.96 L/kg and 0.67 L/kg and 1.08 L/kg and 0.53 L/kg and 0.69 L/kg | Vd(area), apparent volume of distribution ([1]; mean, n=6): 0.8 L/kg | AUC, area under the curve [1, 12]: 81.5 ng·h/mL and 74.6 ng·h/mL and 80.1 ng·h/mL and 78.1 ng·h/mL and 105.8 ng·h/mL and 94.6 ng·h/mL | B [1, 12]: 32.87 ng/mL and 20.05 ng/mL and 29.84 ng/mL and 19.94 ng/mL and 34.75 ng/mL and 25.99 ng/mL | A [1, 13]: 52.7 ng/mL | AUC, area under the curve [1, 13]: 85.8 ng·h/mL | B [1, 13]: 27.2 ng/mL | A [1, 14]: 46.01 ng/mL and 23.41 ng/mL and 43.30 ng/mL and 34.43 ng/mL and 126.49 ng/mL and 42.60 ng/mL | t1/2β, half-life of elimination [1, 15]: 0.77 h (2×) and 0.99 h and 0.74 h and 1.17 h and 0.91 h | α, rate constant of distribution phase [1, 15]: 12.01 h⁻¹ and 4.93 h⁻¹ and 9.99 h⁻¹ and 4.03 h⁻¹ and 17.39 h⁻¹ and 4.41 h⁻¹ | β, rate constant of elimination phase [1, 15]: 0.90 1/h (2×) and 0.70 1/h and 0.93 1/h and 0.59 1/h and 0.76 1/h | α, rate constant of distribution phase [1, 16]: 8.8 h⁻¹ | β, rate constant of elimination phase [1, 16]: 0.8 h⁻¹ | peak concentration in plasma (mean of A + B) [1]: 79.9 ng/mL | stability in plasma [1]: stable in plasma | Proportion in bolus solution [3]: 10.69% | Proportion in standard solution [3]: 14.03% | Proportion in pig plasma [3]: 28.25% | detection in plasma after oral DONSpo [6]: rarely, traces of DONS 1 and 2 (<LOQ) | pH range of stability [7]: 2–7 | pH values at which back-formation or degradation to DON is observed [7]: 8–10
